This is an account of results in patent US9687480B2, “Chiral 1-(4-methylphenylmethyl)-5-oxo-{N-[(3-t-butoxycarbonyl-aminomethyl)]-piperidin-1-yl)-pyrrolidine as inhibitors of collagen induced platelet activation and adhesion” (Council of Scientific & Industrial Research, priority 2011, dated 2017).

Several values for one entry are separate records, joined by “and”; a condition that tells them apart may be missing. Identical values can stand only once. Like-named read-outs stand apart in the source and are kept apart here.

One series concerns the target T1, GPVI (Homo sapiens, UniProt Q9HCN6).
T1 construct: Washed platelets, suspended in the Tyrode's-HEPES buffer; endogenous in cells; host or cells: washed human platelets from healthy volunteers
T1 sequence (Q9HCN6 21-339): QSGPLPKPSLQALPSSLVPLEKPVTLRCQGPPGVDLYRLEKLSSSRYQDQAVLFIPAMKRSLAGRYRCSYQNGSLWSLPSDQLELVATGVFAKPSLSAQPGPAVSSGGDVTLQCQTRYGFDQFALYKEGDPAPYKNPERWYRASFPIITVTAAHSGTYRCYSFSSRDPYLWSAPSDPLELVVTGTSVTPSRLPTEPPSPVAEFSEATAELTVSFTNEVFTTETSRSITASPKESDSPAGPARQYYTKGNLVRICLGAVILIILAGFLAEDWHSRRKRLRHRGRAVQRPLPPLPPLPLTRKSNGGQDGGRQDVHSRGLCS
T1 sequence (P30273 19-86 partner): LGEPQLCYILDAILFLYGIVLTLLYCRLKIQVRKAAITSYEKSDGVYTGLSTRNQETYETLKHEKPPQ
The series is described as follows: GPVI-mediated platelet adhesion assay on fibrillar collagen (human, in vitro). The class given is cell-based. As to conditions: for Platelet adhesion: Table 2 summary, collagen type not stated, effective concentration in brackets: mixture 100 μM, compound 6 30 & 100 μM, compound 7 100 μM; for human platelet adhesion on fibrillar collagen (GP VI mediated): in vitro, washed platelets, divalent cation-free. Here is the method:
Fresh blood was drawn by venipuncture from consenting healthy human volunteers in citrate-phosphate-dextrose. Platelet-rich plasma (PRP) was obtained by centrifugation at 180 g for 20 minutes at room temperature (Beckman TJ6. USA). […] Platelets were then washed twice with Buffer (20 mMHEPES, 138 mM NaCl, 2.9 mMKCl, 1 mMMgCl2, 0.36 mMNaH2PO4, 1 mM EGTA, 4.77 mM trisodium citrate, and 2.35 mM citric acid, 5 mM glucose and Apyrase 1 U/ml, pH 6.5) containing 0.1% bovine serum albumin (BSA) and finally resuspended in the HEPES-buffered Tyrode solution (pH 7.4), to give a concentration of 2×10^8 cells/mL (Jandrot-Perrus M. Lagrue A H, Okuma M, and Boni C Adhesion and Activation of Human Platelets Induced by Convulxin Involve Glycoprotein VI and Integrin α2β1 J. Biol. Chem. 1997; 272: 27035-27041).
Integrin α2β1 binding on soluble collagen depends on the presence of Mg2+/Ca^2+ (Onley D. J., Knight C. G., Tuckwell D. S., Barnes M. J., and Farndale R. W. Micromolar Ca2+ concentrations are essential for Mg2+-dependent binding of collagen by the integrin α2β1 in human platelets. J. Biol. Chem, 2000; 275: 24560-24564.) while GPVI mediates adhesion over fibrillar collagen in absence of divalent ions (Nieswandt B., Brakebusch C, Bergmeier W, Schulte V, Bouvard D, Nejad R M, Lindhout T, Heemskerk J W M, Zirngibl H and Fassler R. Glycoprotein VI but not α2b1 integrin is essential for platelet interaction with collagen. The EMBO Journal, 2001; 20:2120-2130) and therefore the adhesion assays were performed in the presence or absence of these divalent cations. Ninety-six well micro titer plates were coated with insoluble equine tendon fibrillar type I collagen or soluble rat tail type I (non-fibrillar) collagen, maintained in acetate buffer (pH 4.5), (Nakamura T., Jamieson G. A., Okuma M., Kambayashi J., and Tendon N. N. Platelet Adhesion to Native Type I Collagen Fibrils: role of gpVI in divalent cation-dependent and -independent adhesion and thromboxane A2 generation. J. Biol. Chem 1998; 273: 4338-[…], Tendon N N, Ockenhouse C F, Greco N J, Jamieson G A. Adhesive functions of platelet lacking GPIV (CD36). Blood 1991: 78: 2809-13). The unoccupied protein binding sites on the wells were blocked with 5 mg/ml BSA at room temperature for 1 hour, and then rinsed once in PBS. Washed platelets, suspended in the Tyrode's-HEPES buffer (136.7 mM NaCl, 13.8 mM NaHCO3, 0.36 mM NaH2PO4.H2O, 2.6 mM KCl, 1.0 mM MgCl2.6H2O, 5.5 mM glucose, 0.5% BSA, pH 7.4) at 1×10^8 cells/mL were pre-incubated with compounds for 30 min at 37° C. and added to the wells (10^7/well) for 1 h at room temperature. Divalent cation-free adhesion buffer was made by replacing Mg^2+ (1 mM) in the Tyrode-HEPES buffer with 50 μM EDTA (Yoshida S., Sudo T., Niimi M., Tao L., Sun B., Kambayashi J., Watanabe H., Luo E., and Matsuoka H. Inhibition of collagen-induced platelet aggregation by anopheline antiplatelet protein, a saliva protein from a malaria vector mosquito. Blood 2007; 111: 2007-201). After three washes in Tyrode's buffer, the number of adherent platelets was evaluated colorimetrically (as described by Bellavite P., Andrioli G., Gizzo P., Arigliano P., Chirumbolo S., Manzato F, Santonastaso C. A colorimetric method for the measurement of platelet adhesion in microtifer plates. Anal. Biochem. 1994; 216:444-450. Briefly, 150 μl of a 0.1 M citrate buffer (pH 5.4), containing 5 mM p-nitrophenyl phosphate and 0.1% TritonX-100 was added to the wells after washing. After incubation for 60 min at 25° C. in the absence of ambient light, colour was developed by the addition of 100 μl of 2N NaOH and the absorbance at 405 nm was read using a microplate reader (Powerware XS, Biotek, USA).

Series [1] concerns human platelet rich plasma (ADP induced aggregation). Briefly: ADP induced platelet aggregation, human platelet rich plasma (in vitro). The class given is cell-based. The protocol:
The reaction was allowed to proceed for at least 5 min, and the extent of aggregation was expressed in light-transmission units (Ivandic B T, Schlick P, Starltz P, Kurz K, Katas H A, Giannitsis E. Determination of clopidogrel resistance by whole blood platelet aggregometry and inhibitors of the P2Y12 receptor. Clinical Chemistry 2006: 52:383-88).
The percentage of aggregation was calculated by using following formula: Percent Aggregation=A/B×100 Where, A is the number of division traversed by the label on chart in the presence of Inducer & B is the total number of divisions (80). Platelet Aggregation Studies (FIG. 3) a) Platelet Aggregation (Human, In Vitro) (FIG. 3a (i) (ii) (iii))

Another series can be described thus: in vivo. The class given is in vivo, rabbits. Conditions: for AUC / Cmax / MRT / Tmax: 20 mg/kg. Here is the method:
In-vivo pharmacokinetic parameters were generated in male NZ rabbits at a dose of 20 mg/kg by oral route of administration. The blood samples were drawn at 0.25, 0.5, 0.75, 1, 1.5, 2, 4, 6, 8, 10, 12, 18 and 24 hr post dose, processed and analyzed by Liquid Chromatography-Mass Spectrometry (LC-MS). Plasma concentration at different time points were plotted to give Plasma Concentration Time Profile and the data was fitted non-compartmentally using Win NonLin 5.1 version software and the estimates of pharmacokinetic parameters were derived with SD mean values. Maximum plasma concentration (Cmax), time to achieve maximum plasma concentration (tmax).

Setting [2] is: male, NZ, rabbit, in vivo, as stated in the summary text, read-out: tmax.

Take “1-(4-methylphenylmethyl)-5-oxo-{N-[(3-t-butoxycarbonyl-aminomethyl)]-piperidin-1-yl}-pyrrolidine-2-carboxamides [Compound 1]”: the Platelet adhesion entry on GPVI is “Effective”.
For orientation: AUC means concentration integrated over time. For orientation: Cmax means the maximum level reached in the sampled fluid or tissue. The term MRT denotes a mean duration of stay, worked out from the concentration-time curve. Usually Tmax stands for the time at which the peak concentration occurs. With `Cc1ccc(CN2C(=O)CC[C@H]2C(=O)N2CCCC(CNC(=O)OC(C)(C)C)C2)cc1` (some centres unmarked) [Compound 1, 1-(4-methylphenylmethyl)-5-oxo-{N-[(3-t-butoxycarbonyl-aminomethyl)]-piperidin-1-yl}-pyrrolidine-2-carboxamides], the “effect on ADP induced platelet aggregation” value (shortened to “effect”) in series [1] (concentration not given) is given as “no effect”. Besides, in “in vivo” (male NZ rabbits, oral), the AUC was found to be 6524.15 ng·h/mL, the peak concentration (Cmax) worked out at 947.02 ± 237.4 ng/mL, the mean residence time MRT amounted to 16.20 h and the Tmax is on record as 0.68 h. Further, on GPVI, the “human platelet adhesion on fibrillar collagen (GP VI mediated)” value (from here on “human platelet adhesion”) is on record as “partially inhibited”.
As for `Cc1ccc(CN2C(=O)CC[C@H]2C(=O)N2CCC[C@@H](CNC(=O)OC(C)(C)C)C2)cc1` [Compound 6], in series [1] (concentration not given), the “effect” value was “no effect”. Further, the “effect” value in series [1] (up to 300 μM) is on record as “did not exhibit any effect”. In addition, the prolonged systemic exposure entry in the series “in vivo” (as stated in the summary text) is reported as “more than 24 hrs”. Besides, in the series “in vivo” (male NZ rabbits, oral), the area under the curve (AUC) was 874.8 ng·h/mL, the Cmax was 149.49 ± 53.12 ng/mL, the mean residence time MRT amounted to 5.25 h and the Tmax stood at 0.75 h. For the same compound, in the series “in vivo” (setting [2]), the time of peak concentration (Tmax) is 0.75 ± 0.144 h. Moreover, at GPVI, the Platelet adhesion entry was “Effective (30” and the “human platelet adhesion” value was “partially inhibited”.
`Cc1ccc(CN2C(=O)CC[C@H]2C(=O)N2CCC[C@H](CNC(=O)OC(C)(C)C)C2)cc1` [Compound 7, (2S)-1-(4-methylphenylmethyl)-5-oxo-(3R)-{N-[(3-t-butoxycarbonyl-aminomethyl)]-piperidin-1-yl}-pyrrolidine-2-carboxamide]: the “effect” value in series [1] (concentration not given) was “no effect”. In series [1] (up to 300 μM), the “effect” value is “did not exhibit any effect”. Further, in the series “in vivo” (male NZ rabbits, oral), the area under the curve (AUC) is 1112.81 ng·h/mL; the maximum concentration (Cmax) was 112.81 ± 169.77 ng/mL and 112.40 ng/mL; the MRT came out at 16.20 h; the Tmax is 8.67 h. In addition, in “in vivo” (setting [2]), the Tmax turned out to be 8.67 ± 0.66 h. At GPVI, the Platelet adhesion result was “Effective” and the “human platelet adhesion” value is listed as “partially inhibited”.
